In patent US20080090297A1, “Methods for determining the metal bioavailability of metal sources” (Novus International Inc., priority 2006, published 2008):

Legend:
[1] = tested on: metallothionein (MT) mRNA; assay: Bioavailability of different zinc compositions in chickens, MT mRNA in jejunum mucosal scrapings by QRT-PCR; assay type: in vivo, chicken; settings: 70 ppm zinc in corn-soy diet for 2 days (day 21 to 23); six birds per treatment; 18S-normalized; P≦0.05
Experimental: Chickens were fed a low zinc pre-feed diet for 20 days. On day 21, they were switched to a corn-soy diet supplemented with one of the following: 1) unsupplemented for zinc (control); 2) 70 ppm zinc from ZnOxide; 3) 70 ppm zinc from a zinc amino acid complex (Zn AAC); 4) 70 ppm zinc from Zn(HMTBA)2. On day 23, six birds from each treatment were weighed, sacrificed, and jejunum samples were collected. The lumen was rinsed with 3-4 ml of cold saline, the jejunum was cut open lengthwise, and the mucosal surface was scraped with a glass slide. Cell scrapings were collected into 0.9 ml of RNAlater. RNA was isolated as described in Example 1. QRT-PCR was performed as described in Example 1, and 18S-normalized MT mRNA expression was determined.

[2] = tested on: metallothionein (MT) mRNA; assay: Time course of zinc-induced expression of metallothionein in chicken jejunum, QRT-PCR; assay type: in vivo
Excerpt: A total of 54 chickens were fed a low zinc/low copper milo starter diet for 10 days. On day 11 (t=Day 0), the birds were split into two groups: 18 were fed a corn-soy diet supplemented with 25 ppm copper oxide and no zinc (“Cu”) and 36 were fed a corn-soy diet supplemented with 25 ppm copper oxide and 70 ppm zinc from Zn(HMTBA)2 (“Cu+Zn(HMTBA)2”). On days 13 (t=Day 2), 16 (t=Day 5) and 19 (t=Day 8), three “Cu” and three “Cu+Zn(HMTBA)2” birds per day were weighed and sacrificed. The mid-jejunum was collected from each bird. The lumen was rinsed with 3-4 ml of cold saline, and each sample was divided into two pieces, with each piece being no larger than 0.5 cm in any direction. The two pieces from each bird were placed in separate microcentrifuge tubes containing 0.9 ml of RNAlater solution.
RNA was isolated (RNA from the two pieces from each bird were pooled), and 18S-normalized MT mRNA expression levels were measured by QRT-PCR as described in Example 1. The data are expressed as MT mRNA expression relative to the low zinc jejunum reference sample from Example 1.

[3] = tested on: metallothionein (MT) mRNA; assay: Induction of metallothionein (MT) mRNA by zinc in chicken tissues, QRT-PCR; assay type: in vivo; settings: high zinc diet (34 ppm basal + 64 ppm zinc from Zn(HMTBA)2) vs low zinc diet (34 ppm); day 29; normalized to 18S rRNA; one bird per group
Excerpt: Zinc treatment and sample collection. Upon hatching, chicks were placed on a moderately Zn-deficient starter diet. On day 13, they were switched to two different test diets: some were fed a low zinc diet with no zinc supplements (the diet contained 34 ppm zinc in the basal feedstuffs) and the rest were fed a high zinc diet comprising 34 ppm zinc in the feedstuffs and 64 ppm zinc from Zn(HMTBA)2 for a total of 98 ppm zinc. On day 29, a chicken from each group was sacrificed and the following tissues were collected: jejunum (small intestine), jejunum mucosal scrapings, liver, and kidney. The lumen of a 2-3 inch long jejunum section was rinsed with 3-4 ml of cold saline. The jejunum was cut open lengthwise and placed mucosa-side up on a clean cutting board. One piece of jejunum, no greater than 0.5 cm in any direction, was placed into a microcentrifuge tube containing 0.9 ml of RNAlater solution, and stored according to the manufacturer's instructions (Ambion, Austin Tex.). The jejunum section's remaining mucosal surface was scraped with a glass slide. Cell scrapings were collected and placed into 0.9 ml RNAlater. The other tissues were stored in RNAlater. RNA was isolated using the High Pure RNATissue Prep Kit (Roche Applied Science, Cat No 12033674001) following the manufacturer's instructions. The concentration of RNA was determined using a spectrophotometer, and the concentration of RNA was adjusted to a maximum of 0.5 mg/ml by dilution with elution buffer. The RNA samples were either used immediately, or frozen on dry ice and stored at −80° C. until use.
Reverse Transcriptase and Quantitative PCR. First strand cDNA synthesis was performed using the Transcriptor Reverse Transcriptase® (Roche Applied Science, Indianapolis, Ind., catalog #04379012001), using the instructions supplied by the manufacturer. Each first-strand synthesis reaction contained 0.5 μg of total RNA. The reverse transcription was performed in a thermocycler using the following program: a brief, 90 sec denaturation step at 65° C.; annealing for 30 sec at 40° C.; 30 min cDNA synthesis at 55° C.; and enzyme inactivation by 5 min denaturation at 85° C. The reaction product was concentrated by ethanol precipitation, rinsed and dried. The sample was then resuspended in 400 μl of nuclease-free water and A260/A280 was measured to ensure that cDNA concentration in each sample would fall within the range of concentration usable by the QRT-PCR assay.
MT mRNA and 18S rRNA levels were measured by QRT-PCR on a Roche LightCycler®, using the LightCycler® FastStart DNA Master HybProbe Kit (Roche Molecular Systems, Inc, Alameda, Calif., catalog #300324) using 0.5 μM of each primer and 0.2 μM of each TaqMan probe, as shown in Table 1. […]

SMILES | levels of MT mRNA induced in jejunum mucosal scrapings [1] | MT mRNA expression in jejunum, overall effect of treatment ([2]; 70 ppm zinc from Zn(HMTBA)2 + 25 ppm copper oxide vs 25 ppm copper oxide only, days 2, 5, 8, P=0.0077) | MT mRNA expression in jejunum, difference between treatments by day ([2]; Cu+Zn(HMTBA)2 vs Cu diet, three birds per treatment per day, days 2, 5 and 8) | fold induction of MT mRNA in jejunum [3] [fold] | fold induction of MT mRNA in jejunum mucosal scrapings [3] [fold] | fold induction of MT mRNA in kidney [3] [fold] | fold induction of MT mRNA in liver [3] [fold]
CSCCC(O)C(=O)[O-].CSCCC(O)C(=O)[O-].[Zn+2] (centres unmarked) [Zn(HMTBA)2] | significantly greater than those induced by ZnOxide or the Zn AAC | increased MT expression | Significant differences in MT expression are seen between treatments on days 5 and 8 | 34 | 125 | 9 | 19
[O-2].[Zn+2] [ZnOxide, zinc oxide, reference compound] | not significantly greater than MT expression in the unsupplemented birds | – | – | – | – | – | –
